Measurements reported in paper PMC3505271 (Nature chemical biology, 2012).

Tests used:
[1] = biological target: AnaPS (Aspergillus fischeri, UniProt A1DN09); test: amino acid-dependent ATP-[…]PPi exchange; assay type: biochemical; conditions: adenylation domain substrate; ATP co-substrate
[2] = biological target: TqaA (Penicillium aethiopicum, UniProt F1CWE4); test: amino acid-dependent ATP-[…]PPi exchange; assay type: biochemical; conditions: adenylation domain substrate; ATP co-substrate

Chain of AnaPS (A1DN09 whole entry, the tested form may be a part): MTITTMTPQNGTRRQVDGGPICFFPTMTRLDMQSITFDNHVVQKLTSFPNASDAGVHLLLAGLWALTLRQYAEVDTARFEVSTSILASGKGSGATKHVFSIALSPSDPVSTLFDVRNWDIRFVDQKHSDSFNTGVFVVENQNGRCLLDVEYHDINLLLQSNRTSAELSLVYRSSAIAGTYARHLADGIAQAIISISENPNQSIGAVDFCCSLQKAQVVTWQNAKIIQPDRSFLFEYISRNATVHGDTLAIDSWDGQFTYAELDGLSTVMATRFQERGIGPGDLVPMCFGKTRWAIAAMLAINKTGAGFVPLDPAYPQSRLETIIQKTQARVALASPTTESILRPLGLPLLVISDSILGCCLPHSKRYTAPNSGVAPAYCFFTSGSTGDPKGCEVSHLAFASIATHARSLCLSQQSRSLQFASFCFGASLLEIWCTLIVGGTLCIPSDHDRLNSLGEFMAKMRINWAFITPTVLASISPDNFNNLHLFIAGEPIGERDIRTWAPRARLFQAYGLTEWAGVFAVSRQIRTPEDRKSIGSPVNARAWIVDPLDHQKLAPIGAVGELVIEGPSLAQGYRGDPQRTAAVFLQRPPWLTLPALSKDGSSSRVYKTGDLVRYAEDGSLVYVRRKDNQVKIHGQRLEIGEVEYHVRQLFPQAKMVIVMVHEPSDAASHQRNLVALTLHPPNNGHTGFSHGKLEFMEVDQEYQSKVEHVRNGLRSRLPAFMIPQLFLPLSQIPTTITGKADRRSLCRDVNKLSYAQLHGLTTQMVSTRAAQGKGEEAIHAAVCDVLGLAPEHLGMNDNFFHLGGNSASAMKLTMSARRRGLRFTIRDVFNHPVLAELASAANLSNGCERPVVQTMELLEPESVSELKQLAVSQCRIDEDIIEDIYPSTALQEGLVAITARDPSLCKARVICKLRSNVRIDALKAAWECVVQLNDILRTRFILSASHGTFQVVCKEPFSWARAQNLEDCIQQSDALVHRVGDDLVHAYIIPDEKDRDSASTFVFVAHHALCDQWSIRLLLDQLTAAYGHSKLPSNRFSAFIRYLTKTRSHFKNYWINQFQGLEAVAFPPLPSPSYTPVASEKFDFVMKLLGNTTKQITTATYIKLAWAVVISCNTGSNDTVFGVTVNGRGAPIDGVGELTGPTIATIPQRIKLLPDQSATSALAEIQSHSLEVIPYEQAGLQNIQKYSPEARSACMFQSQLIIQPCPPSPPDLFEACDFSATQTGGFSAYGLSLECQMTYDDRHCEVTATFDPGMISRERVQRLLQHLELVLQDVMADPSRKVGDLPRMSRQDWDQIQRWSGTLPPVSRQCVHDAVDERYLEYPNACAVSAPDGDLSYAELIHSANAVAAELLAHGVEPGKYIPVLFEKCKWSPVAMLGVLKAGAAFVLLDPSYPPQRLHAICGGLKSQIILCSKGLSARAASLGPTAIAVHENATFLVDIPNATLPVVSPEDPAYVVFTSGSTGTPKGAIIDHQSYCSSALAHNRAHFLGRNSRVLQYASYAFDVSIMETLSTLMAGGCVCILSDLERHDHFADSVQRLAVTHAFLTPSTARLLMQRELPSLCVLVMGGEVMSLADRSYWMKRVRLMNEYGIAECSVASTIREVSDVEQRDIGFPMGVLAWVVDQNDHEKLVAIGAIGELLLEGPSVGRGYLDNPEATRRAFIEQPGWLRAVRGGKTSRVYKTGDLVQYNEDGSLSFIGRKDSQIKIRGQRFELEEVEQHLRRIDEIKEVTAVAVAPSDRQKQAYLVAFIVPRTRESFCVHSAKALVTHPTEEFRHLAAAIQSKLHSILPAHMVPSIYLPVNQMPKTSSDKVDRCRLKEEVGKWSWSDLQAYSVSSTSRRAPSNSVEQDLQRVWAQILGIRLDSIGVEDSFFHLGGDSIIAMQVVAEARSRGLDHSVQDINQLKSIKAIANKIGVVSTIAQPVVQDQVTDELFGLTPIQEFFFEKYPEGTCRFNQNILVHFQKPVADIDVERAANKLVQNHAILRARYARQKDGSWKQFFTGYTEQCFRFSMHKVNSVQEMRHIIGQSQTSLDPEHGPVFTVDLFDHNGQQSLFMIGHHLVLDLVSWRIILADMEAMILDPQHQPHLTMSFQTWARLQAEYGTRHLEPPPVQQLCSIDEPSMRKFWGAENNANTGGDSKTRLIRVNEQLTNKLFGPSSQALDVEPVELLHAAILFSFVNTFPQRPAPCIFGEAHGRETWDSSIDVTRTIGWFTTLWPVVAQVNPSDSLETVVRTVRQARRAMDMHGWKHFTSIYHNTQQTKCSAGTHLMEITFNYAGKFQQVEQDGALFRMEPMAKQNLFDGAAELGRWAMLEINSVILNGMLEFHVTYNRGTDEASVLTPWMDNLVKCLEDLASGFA

Compound	amino acid-dependent ATP-[32P]PPi exchange [1]	amino acid-dependent ATP-[32P]PPi exchange [2]
N[C@@H](Cc1c[nH]c2ccccc12)C(=O)O [L-tryptophan]	Similarly, AnaPS A domains activated Ant and L-Trp	
Nc1ccccc1C(=O)O [anthranilate]	Similarly, AnaPS A domains activated Ant and L-Trp	TqaA specifically activated the three building blocks Ant, L-Trp and L-Ala
